Several values for one entry are separate records, joined by “and”; a condition that tells them apart may be missing. Equal entries are not always repeated.
Molecular target: T1, GPR73 (prokineticin 1 receptor) (Homo sapiens, UniProt Q8TCW9)
T1 construct: expressed in transfected cells; host or cells: HEK 293
Assay: PK1 functional assay: Ca2+ mobilization screening for PK1 antagonists on the FLIPR
Assay type: cell-based
Conditions: HEK 293 GPR73 cells, multiple values = multiple testing; for inhibition at 10 µM: HEK293, 10 μM compound, read-out: Ca^2+ Mobilization % Inh @ 10 μM; for IC50: PK1 ligand preparation at its EC50, read-out: Ca^2+ Mobilization IC50; for Ca^2+ Mobilization % Inh @ 10 μM: 10 μM compound
Method: At a time of 24 h prior to running the assay, in cell culture media (DMEM containing high Glucose and L-glutamine, 10% FBS, 1% Pen/Streptomycin, 1% Sodium Pyruvate, 20 mM HEPES, Zeocin 200 mg/L), 100 μL of 1.3*10^6/ml HEK 293 GPR73 (prokineticin 1 receptor) expressing cells were plated in a 96 well poly-d-lysine coated plate (Costar), and incubated at 37 C and 5% CO2. On the day in which the assay was run, the media was removed and 200 μL of 5× Calcium Plus Dye (Molecular Devices) which was previously resuspended with 200 mL of assay buffer [HBSS w/Ca^2+ and Mg^2+ w/o phenol red, 20 mM HEPES, 0.1% BSA, 10 mL probenecid (710 mg probenecid in 5 mL of 1N NaOH, to which was then added 5 mL HBSS containing 20 mM HEPES)] was added to each well of the 96-well plate. The plate was incubated at 37 C and 5% CO2 for 30 min in dark. The plate was removed and allowed to reach RT for 15 min in the dark. The assay was then run on the FLIPR. In Brief: base line read for 1 min, compound added (25 μL) and incubated for 4 min, 15 seconds, PK1 ligand preparation added (25 μL) for a final concentration of a previously determined EC50 and fluorescence was counted for 1 min, 45 seconds. Baseline is described as the amount of relative fluorescence read when buffer alone is added to cells. Baseline was subtracted from all wells. Percent of control was calculated as follows:
(Baseline subtracted well value is divided by baseline subtracted max value)*100. Percent inhibition is 100 minus the percent of control value.
The IC50 is defined as the amount of a given compound required to inhibit 50% of the maximum signal that is generated by the concentration of PK1 preparation used in our assay. IC50 values were calculated using GraphPad Prism.

T1 sequence (Q8TCW9 whole entry, species assumed): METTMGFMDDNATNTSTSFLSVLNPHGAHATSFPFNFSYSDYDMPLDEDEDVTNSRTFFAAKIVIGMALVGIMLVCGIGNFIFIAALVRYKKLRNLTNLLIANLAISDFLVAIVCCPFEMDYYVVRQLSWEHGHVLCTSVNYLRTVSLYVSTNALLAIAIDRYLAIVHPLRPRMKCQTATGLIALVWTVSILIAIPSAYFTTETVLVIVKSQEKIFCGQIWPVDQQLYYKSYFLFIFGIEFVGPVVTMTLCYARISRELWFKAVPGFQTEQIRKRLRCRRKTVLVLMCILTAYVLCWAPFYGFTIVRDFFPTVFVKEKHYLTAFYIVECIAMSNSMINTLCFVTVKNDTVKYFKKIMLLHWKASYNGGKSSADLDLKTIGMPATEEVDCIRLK

| SMILES | inhibition at 10 µM | IC50 | Ca^2+ Mobilization % Inh @ 10 μM |
| --- | --- | --- | --- |
| COc1ccc(Cn2c(CCc3ccccn3)cc(=O)n(Cc3ccc(OC)cc3)c2=O)cc1 [Cpd 187] | 41% | > 10000 nM |  |
| COc1ccc(Cn2c(NCc3cccnc3NCCN(C)C)nc(=O)n(Cc3ccc(F)cc3)c2=O)cc1 [Cpd 27] | 102% | 88 nM |  |
| C=CCC(c1ccc(OC)cc1)n1c(=O)nc(NCc2cnc(C)cc2C)n(Cc2ccc(OC)cc2)c1=O (stereo not shown) [Cpd 109] | 89% | 681 nM |  |
| COC(=O)c1ccc(Cn2c(=O)nc(NCc3cccnc3N)n(Cc3ccc(OC)cc3)c2=O)cc1 [Cpd 56] | 47% | > 10000 nM |  |
| CCc1ccc(Cn2c(NCc3cccnc3N)nc(=O)n(Cc3ccc(OC)cc3)c2=O)cc1 [Cpd 63] | 83% | 271 nM |  |
| COc1ccc(Cn2c(OCc3cccnc3)cc(=O)n(Cc3ccc(OC)cc3)c2=O)cc1 [Cpd 121, 1,3-Bis-(4-methoxy-benzyl)-6-(pyridin-3-ylmethoxy)-1H-pyrimidine-2,4-dione] | 58% | 6330 nM |  |
| COc1ccc(Cn2c(CCc3cccnc3C(N)=O)cc(=O)n(Cc3ccc(OC)cc3)c2=O)cc1 [Cpd 189] | 38% | > 10000 nM |  |
| COc1ccc(Cn2c(CCc3cccnc3N)cc(=O)n(Cc3ccc(OC)cc3)c2=O)cc1 [Cpd 199, 6-[2-(2-Amino-pyridin-3-yl)-ethyl]-1,3-bis-(4-methoxy-benzyl)-1H-pyrimidine-2,4-dione] | 92% | 169 nM and 691 nM | 95% |
| COc1ccc(Cn2c(NCCc3ccccn3)nc(=O)n(Cc3ccc(OC)cc3)c2=O)cc1 [Cpd 154] | 79% | 657 nM and 952 nM | 80% |
| COc1ccc(Cn2c(=O)nc(NCc3cnc(C)cc3C)n(Cc3ccc(OC)nc3)c2=O)cc1 [Cpd 104] | 96% | 193 nM |  |
| Nc1ncccc1CNc1nc(=O)n(Cc2ccc3[nH]ccc3c2)c(=O)n1Cc1ccc(OC(F)F)cc1 [Cpd 228] | 63% | 3400 nM |  |
| COc1ccc(Cn2c(NCc3cccnc3N)nc(=O)n(Cc3ccc(F)cc3)c2=O)cc1 [Cpd 8] | 89% | 535 nM and 669 nM | 86% |
| COc1ccc(Cn2c(NCc3c[n+]([O-])c(C)cc3C)nc(=O)n(Cc3ccc(OC)cc3)c2=O)cc1 [Cpd 118] | 80% | 1370 nM |  |
| COCCCCCn1c(=O)nc(NCc2c(C)cc(C)nc2N)n(Cc2ccc(OC)cc2)c1=O [Cpd 252, 6-[(2-Amino-4,6-dimethyl-pyridin-3-ylmethyl)-amino]-1-(4-methoxy-benzyl)-3-(5-methoxy-pentyl)-1H-[1,3,5]triazine-2,4-dione] | 71% | 1350 nM |  |
| COc1ccc(Cn2c(=O)nc(NCc3cccnc3N)n(Cc3ccc(OC)nc3)c2=O)cc1 [Cpd 95] | 92% | 84 nM |  |
| COc1ccc(Cn2c(NCc3cccnc3N)nc(=O)n(Cc3ccc(OC)c([N+](=O)[O-])c3)c2=O)cc1 [Cpd 124] | 61% | 815 nM |  |
| Cc1cc(C)c(CNc2nc(=O)n(Cc3ccc4occc4c3)c(=O)n2Cc2ccc(OC(F)F)cc2)c(N)n1 [Cpd 175] | 96% | 57 nM and 93 nM | 99% |
| COc1ccc(Cn2c(=O)nc(NCc3cccnc3N)n(Cc3cc4ccccc4o3)c2=O)cc1 [Cpd 77] | 91% | 449 nM |  |
| COc1ccc(Cn2c(NCc3cc4ccccc4nc3N)nc(=O)n(Cc3ccc(OC)cc3)c2=O)cc1 [Cpd 9] | 95% | 295 nM |  |
| COc1ccc(Cn2c(CNCc3cccnc3N)cc(=O)n(Cc3ccc(OC)cc3)c2=O)cc1 [Cpd 7, 6-{[(2-Amino-pyridin-3-ylmethyl)-amino]-methyl}-1,3-bis-(4-methoxy-benzyl)-1H-pyrimidine-2,4-dione] | 60% | 6200 nM |  |

| SMILES | inhibition at 10 µM | IC50 | Ca^2+ Mobilization % Inh @ 10 μM |
| --- | --- | --- | --- |
| COc1ccc(Cn2c(CCc3cccnc3)cc(=O)n(Cc3ccc(OC)cc3)c2=O)cc1 [Cpd 169] | 78% | 226 nM and 973 nM | 86% |
| COCCCCCn1c(NCc2cccnc2N)nc(=O)n(Cc2ccc(OC(F)F)cc2)c1=O [Cpd 257] | 76% | 1520 nM |  |
| COCCCCCn1c(NCc2c(C)cc(C)nc2N)nc(=O)n(Cc2ccccc2)c1=O [Cpd 254] | 96% | 98 nM |  |
| COc1ccc(Cn2c(=O)nc(NCc3cccnc3N)n(Cc3ccc(OC(C)(C)C)cc3)c2=O)cc1 [Cpd 135] | 94% | 186 nM |  |
| COc1ccc(Cn2c(NCc3cccnc3N)nc(=O)n(Cc3ccc4sccc4c3)c2=O)cc1 [Cpd 145] | 90% | 317 nM |  |
| COc1ccc(Cn2c(=O)nc(NCc3cccnc3N)n(Cc3ccc(O)cc3)c2=O)cc1 [Cpd 33, 6-[(2-Amino-pyridin-3-ylmethyl)-amino]-1-(4-hydroxy-benzyl)-3-(4-methoxy-benzyl)-1H-[1,3,5]triazine-2,4-dione] | 95% | 49 nM and 77 nM | 102% |
| COc1ccc(Cn2c(OCc3cccnc3N)cc(=O)n(Cc3ccc(OC)cc3)c2=O)cc1 [Cpd 190] | 79% | 502 nM |  |
| COc1ccc(Cn2c(NCc3cncnc3N)nc(=O)n(Cc3ccc(OC)cc3)c2=O)cc1 [Cpd 6] | 90% | 176 nM |  |
| COc1ccc(Cn2c(NCc3cnc(C)cc3C)nc(=O)n(Cc3ccc4c(c3)CCO4)c2=O)cc1 [Cpd 123, 3-(2,3-Dihydro-benzofuran-5-ylmethyl)-6-[(4,6-dimethyl-pyridin-3-ylmethyl)-amino]-1-(4-methoxy-benzyl)-1H-[1,3,5]triazine-2,4-dione] | 83% | 684 nM |  |
| COc1ccc(Cn2c(NCc3c(OC)ccnc3N)nc(=O)n(Cc3ccc(OC)cc3)c2=O)cc1 [Cpd 58] | 95% | 89 nM |  |
| COc1ccc(Cn2c(=O)nc(NCc3cnc(C)cc3C)n(Cc3cc4ccccc4o3)c2=O)cc1 [Cpd 102] | 99% | 110 nM |  |
| COCCNc1ncccc1CNc1nc(=O)n(CC2COc3ccccc3O2)c(=O)n1Cc1ccc(OC)cc1 (stereo not shown) [Cpd 73] | 58% | 5930 nM |  |
| COc1ccc(Cn2c(NCc3cccnc3N)nc(=O)n(Cc3ccc4[nH]ccc4c3)c2=O)cc1 [Cpd 230] | 66% | 2750 nM |  |
| COc1ccc(Cn2c(=O)nc(NCc3cccnc3N)n(Cc3ccc(OC)c(F)c3)c2=O)cc1 [Cpd 203] | 103% | 60 nM |  |
| COc1ccc(Cn2c(NCc3cccc(C(F)(F)F)n3)nc(=O)n(Cc3ccc(OC)cc3)c2=O)cc1 [Cpd 64] | 50% | 5260 nM and 8510 nM | 51% |
| COc1ccc(Cn2c(NCc3cccnc3N)nc(=O)n(Cc3ccc(Cl)cc3)c2=O)cc1 [Cpd 231] | 89% | 245 nM |  |
| COCCNc1ncccc1CNc1nc(=O)n(CCc2ccccc2)c(=O)n1Cc1ccc(OC)cc1 [Cpd 71] | 38% | > 10000 nM |  |
| COc1ccc(Cn2c(NCc3ccc(C(F)(F)F)nc3)nc(=O)n(Cc3ccc(OC)cc3)c2=O)cc1 [Cpd 122] | 76% | 194 nM |  |
| COc1ccc(Cn2c(=O)nc(NCc3cccnc3N)n(Cc3cccc4cc[nH]c34)c2=O)cc1 [Cpd 171] | 46% | > 10000 nM |  |
